Common to all, as to type: biochemical
One assay has as its target T1, Caspase-3 (Homo sapiens, UniProt P42574).
T1 sequence (P42574 29-175 limits assumed): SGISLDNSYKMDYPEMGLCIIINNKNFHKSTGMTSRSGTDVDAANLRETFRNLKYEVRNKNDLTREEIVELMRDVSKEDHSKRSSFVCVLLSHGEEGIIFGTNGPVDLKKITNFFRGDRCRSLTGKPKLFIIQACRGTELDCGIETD
T1 sequence (P42574 176-277 limits assumed): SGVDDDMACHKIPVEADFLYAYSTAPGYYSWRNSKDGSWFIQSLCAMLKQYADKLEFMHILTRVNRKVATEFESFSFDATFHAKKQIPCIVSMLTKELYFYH
In words: Kinetic compound screening, progress curve method, caspase-3. The following applies: for Ki(app) Caspase-3: Table III, Ki(app) = Kass or Kobs/I, 5 nM active caspase-3; for Caspase-3 Ki(app): Table IV. The method, boiled down:
(§1)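 Progress-curve method under pseudo-first-order kinetics, giving Ki(app) (kobs/I, M^−1s^−1), in caspase reaction buffer. Active enzyme at 5 nM (caspase-3, -7), 10 nM (caspase-8) or 50 nM (caspase-9), preactivated at 37 °C for 5, 10 or 40 min respectively. Some caspase-9 compounds also run with 1 M sodium citrate replacing sucrose.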

A further assay has as its target T2, Caspase-7 (Homo sapiens, UniProt P55210).
T2 sequence (P55210 1-303): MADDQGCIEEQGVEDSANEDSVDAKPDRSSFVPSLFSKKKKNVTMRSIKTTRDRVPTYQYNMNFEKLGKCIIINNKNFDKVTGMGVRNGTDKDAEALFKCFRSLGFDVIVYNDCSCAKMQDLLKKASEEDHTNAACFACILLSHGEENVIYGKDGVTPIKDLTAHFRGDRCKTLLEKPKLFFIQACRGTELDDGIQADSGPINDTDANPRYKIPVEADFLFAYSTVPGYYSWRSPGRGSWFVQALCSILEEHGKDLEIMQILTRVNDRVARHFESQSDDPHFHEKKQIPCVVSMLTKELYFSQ
The experiment in a line: Kinetic compound screening, progress curve method, caspase-7. The following applies: for Ki(app) Caspase-7: Table III, Ki(app) = Kass or Kobs/I, 5 nM active caspase-7; for Caspase-7 Ki (app): Table IV. In outline:
as §1

Another assay addresses Caspase-8 (Homo sapiens, UniProt Q14790). The experiment in a line: Kinetic compound screening, progress curve method, caspase-8. The following applies: for Ki(app) Caspase-8: Table III, Ki(app) = Kass or Kobs/I, 10 nM active caspase-8; for Caspase-8 Ki (app): Table IV, NI = no inhibition at concentrations tested. The method, boiled down: as §1

Sequence of Caspase-8 (Q14790 217-479): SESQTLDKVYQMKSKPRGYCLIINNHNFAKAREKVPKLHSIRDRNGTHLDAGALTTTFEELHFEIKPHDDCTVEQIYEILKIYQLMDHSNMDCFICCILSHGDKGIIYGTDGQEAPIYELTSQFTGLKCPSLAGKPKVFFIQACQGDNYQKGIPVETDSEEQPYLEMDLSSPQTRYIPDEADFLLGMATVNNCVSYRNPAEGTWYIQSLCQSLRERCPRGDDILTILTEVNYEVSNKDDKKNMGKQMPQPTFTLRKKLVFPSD

`Cc1cccc(C)c1C(=O)OCC(=O)[C@H](CC(=O)O)NC(=O)[C@@H](NC(=O)[C@H](Cc1ccncc1)NC(=O)[C@H](CC(=O)O)NC(=O)Cc1ccc(O)c([N+](=O)[O-])c1)C(C)C` [AB06, Np-D-3-V-D-DMBA]: on Caspase-3, the “Ki(app) Caspase-3” value was 7,456,511 M^−1s^−1 and the “Caspase-3 Ki(app)” value is reported as 7,456,511 M-1s-1. Further, at Caspase-7, the “Ki(app) Caspase-7” value is listed as 968,070 M^−1s^−1 and the “Caspase-7 Ki (app)” value is reported as 968,070 M-1s-1. On Caspase-8, the “Ki(app) Caspase-8” value was 32,909 M^−1s^−1 and the “Caspase-8 Ki (app)” value was 32,909 M-1s-1.

On to `Cc1cccc(C)c1C(=O)OCC(=O)[C@H](CC(=O)O)NC(=O)[C@@H](NC(=O)[C@H](CCC(=O)O)NC(=O)[C@H](CC(=O)O)NC(=O)Cc1ccc(O)c([N+](=O)[O-])c1)C(C)C` [AB09, Np-D-E- V-D-DMBA], for which, on Caspase-3, the “Ki(app) Caspase-3” value is listed as 10,922,261 M^−1s^−1 and the “Caspase-3 Ki(app)” value is recorded as 10,922,261 M-1s-1. On Caspase-7, the “Ki(app) Caspase-7” value is 1,529,040 M^−1s^−1 and the “Caspase-7 Ki (app)” value is reported as 1,529,040 M-1s-1. Further, on Caspase-8, the “inhibition of caspase-8, in words” value was “strong activity towards caspase-8”; the “Ki(app) Caspase-8” value is 1,077,839 M^−1s^−1; the “Caspase-8 Ki (app)” value is reported as 1,077,839 M-1s-1.

For the compound “Bio-EVD-AOMK [KMB01, reference compound]”, on Caspase-3, the “Ki(app) Caspase-3” value was 577,913 M^−1s^−1 and the “Caspase-3 Ki(app)” value was 577,913 M-1s-1. For the same compound, at Caspase-7, the “Ki(app) Caspase-7” value is 288,213 M^−1s^−1 and the “Caspase-7 Ki (app)” value is 288,213 M-1s-1. Besides, at Caspase-8, the “Ki(app) Caspase-8” value is 164,052 M^−1s^−1 and the “Caspase-8 Ki (app)” value was 164,052 M-1s-1.

The values above are taken from patent US20100068150A1, “Selective Caspase Inhibitors” (The Board of Trustees of the Leland Stanford Junior …, priority 2006, published 2010).
